Measurements reported in ChEMBL document CHEMBL3885861, “Open TG-GATES”.

Organism: Rattus norvegicus
Test: Open TG-GATES - Regimen: Single
Assay type: toxicity, organism-based, Sprague-Dawley
Parameters: regimen Single, gender Male, age 6 weeks
Conditions: in vivo, po, 100 mg/kg, route gavage, dose level Low; for APTT / Bas / Eos / Fbg / Hb / Ht / Lym / MCH / MCHC / MCV / Mono / Neu / PT / Plat / RBC / Ret / WBC: tissue Blood; for KIDNEY_L / KIDNEY_R / KIDNEY_TOTAL: tissue Kidney; for LIVER: tissue Liver; for A/G / ALP / ALT / AST / BUN / CRE / Ca / Cl / DBIL / GLC / IP / K / LDH / Na / PL / RALB / TBIL / TC / TG / TP / gamma-GTP: tissue Plasma

Question: Which TERMINAL_BW (3 h) does the source give for `O=C(N[C@H](CO)[C@H](O)c1ccc([N+](=O)[O-])cc1)C(Cl)Cl` [CHLORAMPHENICOL] here?
Answer: 219.7 g

Question: What about the APTT (3 h) of the same molecule?
Answer: 16 s

Question: What about the Bas (3 h) of the same molecule?
Answer: 0%

Question: And the Eos (3 h)?
Answer: 0.6%

Question: What about the Fbg (3 h) of the same molecule?
Answer: 268.8 mg/dL

Question: What about the Hb (3 h) of the same molecule?
Answer: 13.2 g/dL

Question: What about the Ht (3 h) of the same molecule?
Answer: 38.6%

Question: And the Lym (3 h)?
Answer: 76.2%

Question: What about the MCH (3 h) of the same molecule?
Answer: 21.9 pg

Question: And the MCHC (3 h)?
Answer: 34.3%

Question: What about the MCV (3 h) of the same molecule?
Answer: 63.8 fL

Question: And the Mono (3 h)?
Answer: 3%

Question: And the Neu (3 h)?
Answer: 19.2%

Question: What about the PT (3 h) of the same molecule?
Answer: 14.6 s

Question: And the Plat (3 h)?
Answer: 115.2 x10_4/uL

Question: What about the RBC (3 h) of the same molecule?
Answer: 608.2 x10_4/ul

Question: And the Ret (3 h)?
Answer: 8.1%

Question: And the WBC (3 h)?
Answer: 83.6 x10_2/uL

Question: What about the KIDNEY_L (3 h) of the same molecule?
Answer: 0.9 g

Question: And the KIDNEY_R (3 h)?
Answer: 0.9 g

Question: What about the KIDNEY_TOTAL (3 h) of the same molecule?
Answer: 1.9 g

Question: What about the LIVER (3 h) of the same molecule?
Answer: 9.6 g

Question: What about the A/G (3 h) of the same molecule?
Answer: 0.8

Question: What about the ALP (3 h) of the same molecule?
Answer: 1429.8 IU/L

Question: And the ALT (3 h)?
Answer: 43 IU/L

Question: What about the AST (3 h) of the same molecule?
Answer: 74.2 IU/L

Question: And the BUN (3 h)?
Answer: 10.2 mg/dL

Question: And the CRE (3 h)?
Answer: 0.2 mg/dL

Question: And the Ca (3 h)?
Answer: 11.5 mg/dL

Question: What about the Cl (3 h) of the same molecule?
Answer: 105 meq/L

Question: What about the DBIL (3 h) of the same molecule?
Answer: 0.014 mg/dL

Question: What about the GLC (3 h) of the same molecule?
Answer: 180.8 mg/dL

Question: What about the IP (3 h) of the same molecule?
Answer: 8.7 mg/dL

Question: What about the K (3 h) of the same molecule?
Answer: 4.2 meq/L

Question: And the LDH (3 h)?
Answer: 58.6 IU/L

Question: And the Na (3 h)?
Answer: 140.4 meq/L

Question: And the PL (3 h)?
Answer: 136.6 mg/dL

Question: And the RALB (3 h)?
Answer: 2.5 g/dL

Question: And the TBIL (3 h)?
Answer: 0.06 mg/dL

Question: What about the TC (3 h) of the same molecule?
Answer: 78.4 mg/dL

Question: What about the TG (3 h) of the same molecule?
Answer: 58.4 mg/dL

Question: And the TP (3 h)?
Answer: 5.4 g/dL

Question: What about the gamma-GTP (3 h) of the same molecule?
Answer: 1.2 IU/L

Question: And the TERMINAL_BW (6 h)?
Answer: 219.6 g

Question: And the APTT (6 h)?
Answer: 17.7 s

Question: And the Bas (6 h)?
Answer: 0%

Question: And the Eos (6 h)?
Answer: 0.8%

Question: And the Fbg (6 h)?
Answer: 283.6 mg/dL

Question: And the Hb (6 h)?
Answer: 13.4 g/dL

Question: What about the Ht (6 h) of the same molecule?
Answer: 42.9%

Question: And the Lym (6 h)?
Answer: 78.2%

Question: And the MCH (6 h)?
Answer: 21.3 pg

Question: And the MCHC (6 h)?
Answer: 31.1%

Question: And the MCV (6 h)?
Answer: 68.5 fL

Question: And the Mono (6 h)?
Answer: 2.2%

Question: What about the Neu (6 h) of the same molecule?
Answer: 18.2%

Question: What about the PT (6 h) of the same molecule?
Answer: 14.7 s

Question: And the Plat (6 h)?
Answer: 106.7 x10_4/uL

Question: And the RBC (6 h)?
Answer: 627.6 x10_4/ul

Question: And the Ret (6 h)?
Answer: 7.9%

Question: And the WBC (6 h)?
Answer: 71.4 x10_2/uL

Question: What about the KIDNEY_L (6 h) of the same molecule?
Answer: 1 g

Question: What about the KIDNEY_R (6 h) of the same molecule?
Answer: 1 g

Question: And the KIDNEY_TOTAL (6 h)?
Answer: 1.9 g

Question: And the LIVER (6 h)?
Answer: 9.1 g

Question: And the A/G (6 h)?
Answer: 0.9

Question: What about the ALP (6 h) of the same molecule?
Answer: 1362.6 IU/L

Question: What about the ALT (6 h) of the same molecule?
Answer: 39.2 IU/L

Question: What about the AST (6 h) of the same molecule?
Answer: 75.2 IU/L

Question: And the BUN (6 h)?
Answer: 9 mg/dL

Question: And the CRE (6 h)?
Answer: 0.2 mg/dL

Question: What about the Ca (6 h) of the same molecule?
Answer: 11.4 mg/dL

Question: What about the Cl (6 h) of the same molecule?
Answer: 105 meq/L

Question: And the DBIL (6 h)?
Answer: 0.012 mg/dL

Question: What about the GLC (6 h) of the same molecule?
Answer: 176.8 mg/dL

Question: And the IP (6 h)?
Answer: 9.6 mg/dL

Question: What about the K (6 h) of the same molecule?
Answer: 4.2 meq/L

Question: And the LDH (6 h)?
Answer: 89.4 IU/L

Question: What about the Na (6 h) of the same molecule?
Answer: 141 meq/L

Question: What about the PL (6 h) of the same molecule?
Answer: 126.2 mg/dL

Question: What about the RALB (6 h) of the same molecule?
Answer: 2.5 g/dL

Question: And the TBIL (6 h)?
Answer: 0.066 mg/dL

Question: And the TC (6 h)?
Answer: 72.6 mg/dL

Question: What about the TG (6 h) of the same molecule?
Answer: 48.4 mg/dL

Question: What about the TP (6 h) of the same molecule?
Answer: 5.4 g/dL

Question: What about the gamma-GTP (6 h) of the same molecule?
Answer: 1.2 IU/L

Question: What about the TERMINAL_BW (9 h) of the same molecule?
Answer: 221.1 g

Question: And the APTT (9 h)?
Answer: 16.6 s

Question: What about the Bas (9 h) of the same molecule?
Answer: 0%

Question: What about the Eos (9 h) of the same molecule?
Answer: 1%

Question: What about the Fbg (9 h) of the same molecule?
Answer: 281.8 mg/dL

Question: And the Hb (9 h)?
Answer: 13.3 g/dL

Question: What about the Ht (9 h) of the same molecule?
Answer: 42.4%

Question: And the Lym (9 h)?
Answer: 78.6%

Question: And the MCH (9 h)?
Answer: 21.2 pg

Question: What about the MCHC (9 h) of the same molecule?
Answer: 31.3%

Question: What about the MCV (9 h) of the same molecule?
Answer: 67.8 fL

Question: And the Mono (9 h)?
Answer: 2%

Question: And the Neu (9 h)?
Answer: 17.6%

Question: What about the PT (9 h) of the same molecule?
Answer: 14.8 s

Question: And the Plat (9 h)?
Answer: 115.3 x10_4/uL

Question: And the RBC (9 h)?
Answer: 626.6 x10_4/ul

Question: And the Ret (9 h)?
Answer: 7.9%

Question: And the WBC (9 h)?
Answer: 61.1 x10_2/uL

Question: What about the KIDNEY_L (9 h) of the same molecule?
Answer: 0.9 g

Question: And the KIDNEY_R (9 h)?
Answer: 0.9 g

Question: What about the KIDNEY_TOTAL (9 h) of the same molecule?
Answer: 1.9 g

Question: What about the LIVER (9 h) of the same molecule?
Answer: 9 g

Question: And the A/G (9 h)?
Answer: 0.9

Question: And the ALP (9 h)?
Answer: 1589.8 IU/L

Question: And the ALT (9 h)?
Answer: 38.8 IU/L

Question: And the AST (9 h)?
Answer: 67.2 IU/L

Question: What about the BUN (9 h) of the same molecule?
Answer: 9 mg/dL

Question: What about the CRE (9 h) of the same molecule?
Answer: 0.2 mg/dL

Question: What about the Ca (9 h) of the same molecule?
Answer: 11.4 mg/dL

Question: And the Cl (9 h)?
Answer: 105.2 meq/L

Question: And the DBIL (9 h)?
Answer: 0.014 mg/dL

Question: And the GLC (9 h)?
Answer: 181 mg/dL

Question: And the IP (9 h)?
Answer: 10 mg/dL

Question: What about the K (9 h) of the same molecule?
Answer: 4.2 meq/L

Question: What about the LDH (9 h) of the same molecule?
Answer: 61.4 IU/L

Question: And the Na (9 h)?
Answer: 140.8 meq/L

Question: What about the PL (9 h) of the same molecule?
Answer: 145.6 mg/dL

Question: What about the RALB (9 h) of the same molecule?
Answer: 2.6 g/dL

Question: What about the TBIL (9 h) of the same molecule?
Answer: 0.072 mg/dL

Question: And the TC (9 h)?
Answer: 83.2 mg/dL

Question: What about the TG (9 h) of the same molecule?
Answer: 47.4 mg/dL

Question: And the TP (9 h)?
Answer: 5.5 g/dL

Question: And the gamma-GTP (9 h)?
Answer: 1 IU/L

Question: What about the TERMINAL_BW (24 h) of the same molecule?
Answer: 224.4 g

Question: And the APTT (24 h)?
Answer: 16.8 s

Question: What about the Bas (24 h) of the same molecule?
Answer: 0%

Question: And the Eos (24 h)?
Answer: 1%

Question: What about the Fbg (24 h) of the same molecule?
Answer: 264.4 mg/dL

Question: What about the Hb (24 h) of the same molecule?
Answer: 13.3 g/dL

Question: What about the Ht (24 h) of the same molecule?
Answer: 41.6%

Question: What about the Lym (24 h) of the same molecule?
Answer: 79.8%

Question: And the MCH (24 h)?
Answer: 21.4 pg

Question: And the MCHC (24 h)?
Answer: 32%

Question: And the MCV (24 h)?
Answer: 66.7 fL

Question: What about the Mono (24 h) of the same molecule?
Answer: 3.6%

Question: What about the Neu (24 h) of the same molecule?
Answer: 15%

Question: What about the PT (24 h) of the same molecule?
Answer: 14.8 s

Question: And the Plat (24 h)?
Answer: 123 x10_4/uL

Question: And the RBC (24 h)?
Answer: 623.4 x10_4/ul

Question: What about the Ret (24 h) of the same molecule?
Answer: 7%

Question: And the WBC (24 h)?
Answer: 81.1 x10_2/uL

Question: What about the KIDNEY_L (24 h) of the same molecule?
Answer: 1 g

Question: And the KIDNEY_R (24 h)?
Answer: 1 g

Question: And the KIDNEY_TOTAL (24 h)?
Answer: 1.9 g

Question: And the LIVER (24 h)?
Answer: 9.4 g

Question: And the A/G (24 h)?
Answer: 0.9

Question: What about the ALP (24 h) of the same molecule?
Answer: 1622.8 IU/L

Question: What about the ALT (24 h) of the same molecule?
Answer: 48.2 IU/L

Question: What about the AST (24 h) of the same molecule?
Answer: 80.4 IU/L

Question: And the BUN (24 h)?
Answer: 15 mg/dL

Question: What about the CRE (24 h) of the same molecule?
Answer: 0.2 mg/dL

Question: And the Ca (24 h)?
Answer: 11.4 mg/dL

Question: And the Cl (24 h)?
Answer: 105.8 meq/L

Question: And the DBIL (24 h)?
Answer: 0.012 mg/dL

Question: And the GLC (24 h)?
Answer: 186.6 mg/dL

Question: And the IP (24 h)?
Answer: 8.6 mg/dL

Question: What about the K (24 h) of the same molecule?
Answer: 4.1 meq/L

Question: And the LDH (24 h)?
Answer: 61.4 IU/L

Question: And the Na (24 h)?
Answer: 141.6 meq/L

Question: And the PL (24 h)?
Answer: 133 mg/dL

Question: What about the RALB (24 h) of the same molecule?
Answer: 2.6 g/dL

Question: What about the TBIL (24 h) of the same molecule?
Answer: 0.058 mg/dL

Question: What about the TC (24 h) of the same molecule?
Answer: 76.8 mg/dL

Question: What about the TG (24 h) of the same molecule?
Answer: 53.6 mg/dL

Question: What about the TP (24 h) of the same molecule?
Answer: 5.6 g/dL

Question: And the gamma-GTP (24 h)?
Answer: 1 IU/L
